The source of these data is paper PMC8228121, “Super-Cationic Peptide Dendrimers—Synthesis and Evaluation as Antimicrobial Agents” (Antibiotics, 2021).

Each structure is given as a SMILES string. Values after ≈ are worked out from the molar mass of the structure shown. Bridge positions count the residues as written; N and C are the ends. Square brackets hold non-standard residues; d marks the D form. Side chains are listed from the residue outwards. Peptide text beside a SMILES is read from it. I, II: the chains in the order shown. Orn = NCCC[C@H](N)C(=O)O

One series relates to P. aeruginosa ATCC 27853. The series can be described thus: microbe, parasite or virus in culture. The format is cell-based, Pseudomonas aeruginosa. The following applies: ATCC 27853. In outline:
(§1)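 Read-out is the MIC from broth microdilution, judged against CLSI criteria. A parallel version used a 50% human serum plus Mueller–Hinton broth medium.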

The subject of a further series is E. faecium ATCC 35667. The series can be described thus: microbe, parasite or virus in culture. The format is cell-based, Enterococcus faecium. The following applies: ATCC 35667. The procedure, abridged:
as §1

The next series relates to E. coli ATCC 25822. Briefly: microbe, parasite or virus in culture. Format: cell-based, Escherichia coli. The following applies: ATCC 25822. In outline:
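CLSI-guided broth microdilution gave the MIC values. Serum influence was measured by the same method in Mueller–Hinton broth containing 50% human serum.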

In another series the test system is B. subtilis ATCC 6051. Briefly: microbe, parasite or virus in culture. The format is cell-based, Bacillus subtilis. The following applies: ATCC 6051. In outline: as §1
For another series, the system named is S. aureus ATCC 29213. Briefly: microbe, parasite or virus in culture. The following applies: ATCC 29213. Format: cell-based, Staphylococcus aureus. In outline:
as §1

The test system of another series is HepG2 cells. The series can be described thus: MTT cytotoxicity assay. Particulars: HepG2, range of concentrations tested. The format is cell-based, human.
Series [1] has as its system P. aeruginosa. Briefly: Time–kill curves. Format: cell-based. As to the method: Killing curve assays were performed with a starting inoculum of 6 × 10^6 CFU/mL. […] Antimicrobials were added to 5 mL of bacteria in the exponential phase of growth and incubated at 37 °C with shaking. Samples were obtained aseptically at 0, 1, 2, 4, 6 and 24 h, diluted in Ringer 1/4 and plated on TSA for colony counting. The response of microbial strains to a single antimicrobial was determined by lowering logarithms of viable bacteria. In accordance with Lora-Tamayo et al., an antimicrobial was considered active when a reduction of ≥1 log10 relative to the initial inoculum was observed.

In the next series the test system is S. aureus. The series can be described thus: Effect on bacterial growth curves. Particulars: at MIC, ½ MIC and ¼ MIC. Format: cell-based. The procedure: (§2) The study of the growth dynamic of the S. aureus, E. coli and P.aeruginosa strains against CAMPDs were assayed with a starting inoculum of 10^6–10^8 CFU/mL in a 10 mL specific falcon tube. The experiment was performed by a real-time reverse-spin bioreactor RTS-1 (Biosan SIA, Riga, Latvia) that applies non-invasive, mechanically driven rotation; thus, the cell suspension is mixed efficiently, mixing and oxygening the culture at 37 °C. Cell growth kinetics were recorded non-invasively in real time from data obtained from a near-infrared optical system, every 15 min.

In series [2] the test system is P. aeruginosa. The series can be described thus: Effect on bacterial growth curves. The format is cell-based. The procedure: as §2
In another series the test system is E. coli. The series can be described thus: Effect on bacterial growth curves. The format is cell-based. Particulars: irrespective of concentration (MIC, ½ MIC and ¼ MIC). As to the method: as §2
For series [3], the system named is MRSA (methicillin-resistant S. aureus) isolates. Briefly: microbe, parasite or virus in culture. Format: cell-based. The following applies: methicillin-resistant ) isolates. The procedure, abridged: as §1
Another series is described as follows: in vitro. Particulars: human.
Another series can be described thus: MTT cytotoxicity assay. The following applies: human, HepG2 cells, HepG2, 24 h exposure. The format is cell-based, human. (In general: Formazan colour is commonly taken as a measure of viable cells.)

Method for HEK293 cells: (§3) Cell viability was evaluated using the colorimetric MTT assay [21]. Human hepatocarcinoma (HepG2) cells and human embryonic kidney 293 (HEK-293) cells used in the drug toxicity assays were obtained from Cellonex (Johannesburg, South Africa). Viable HepG2 and HEK293 cells (20,000 cells/well) were seeded into a 96-well microtiter plate (200 µL) and allowed to attach overnight. The cells were exposed to varying concentrations of the peptides for 24 h. After removal of the treatment medium, 20 µL of MTT salt solution (5 mg/mL in 0.1M phosphate buffer saline (PBS)) and 100 µL of complete cell culture medium (CCM) were added to each well. After a 4 h (37 °C) incubation, the MTT salt solution was discarded and 100 μL of dimethyl sulphoxide (DMSO) were added to each well (1 h, 37 °C). The optical density of the solubilized formazan product was measured at 570 nm (reference λ of 690 nm) using a Bio-tek μQuant spectrophotometer (Winooski, VT, USA). […] GraphPad Prism (V5) (La Jolla, CA, USA) was used to obtain the half maximum inhibitory concentration (IC50) for each compound.
Method for HepG2 cells: as §3
Method for in vitro: as §3

With `CC(C)C[C@H](NC(=O)[C@H](CC(C)C)NC(=O)[C@H](CCCCN)NC(=O)[C@H](CC(C)C)NC(=O)[C@H](CC(C)C)NC(=O)[C@H](CCCCNC(=O)[C@H](CCCCN)NC(=O)[C@H](CC(C)C)NC(=O)[C@@H](N)CCCCN)NC(=O)[C@H](CCCCN)NC(=O)[C@H](CC(C)C)NC(=O)[C@@H](N)CCCCN)C(N)=O` [G1KLK-L2KL2, (KLK)2KLLKLL-NH2] (H-KLKK([Lys-Leu-Lys])LLKLL-NH2), the MBC in the series on P. aeruginosa ATCC 27853 is 32 µg/mL (≈ 21.8 µM); against E. coli ATCC 25822 it was 32 µg/mL (≈ 21.8 µM); with B. subtilis ATCC 6051 it was 64 µg/mL (≈ 43.7 µM); in the series with S. aureus ATCC 29213, 128 µg/mL (≈ 87.4 µM). The MIC in the series with P. aeruginosa ATCC 27853 was 32 µg/mL (≈ 21.8 µM); against E. faecium ATCC 35667, greater than 128 µg/mL; against E. coli ATCC 25822, 32 µg/mL (≈ 21.8 µM); with B. subtilis ATCC 6051, 64 µg/mL (≈ 43.7 µM); against S. aureus ATCC 29213, 128 µg/mL (≈ 87.4 µM). Further, the “toxicity (MTT)” value with HepG2 cells is “did not show toxicity at the range of concentrations tested”.
`CC(C)C[C@H](NC(=O)[C@H](CC(C)C)NC(=O)[C@H](CCCN)NC(=O)[C@H](CC(C)C)NC(=O)[C@H](CC(C)C)NC(=O)[C@H](CCCCNC(=O)[C@H](CCCN)NC(=O)[C@H](CC(C)C)NC(=O)[C@@H](N)CCCN)NC(=O)[C@H](CCCN)NC(=O)[C@H](CC(C)C)NC(=O)[C@@H](N)CCCN)C(N)=O` [G1OLO-L2OL2, (OLO)2KLLOLL-NH2] (H-[Orn]L[Orn]K([Orn-Leu-Orn])LL[Orn]LL-NH2): the “time–kill: effect on bacterial population” value with P. aeruginosa [1] (any concentration tested (MIC, ½ MIC, ¼ MIC)) was “had no effect at any concentration tested”. For the same compound, the “effect on growth curve” value in the series with S. aureus was “negligible”; in the series on P. aeruginosa [2] (at ½ MIC or ¼ MIC) it was “no effect”; with E. coli, “abolished bacterial growth”. Also, the delay in growth result in the series with P. aeruginosa [2] (at the MIC) is given as “approximately 6 h”. Moreover, the MBC is given as 16 µg/mL (≈ 11.5 µM) against P. aeruginosa ATCC 27853; 16 µg/mL (≈ 11.5 µM) with E. faecium ATCC 35667; 8 µg/mL (≈ 5.74 µM) in the series on E. coli ATCC 25822; 32 µg/mL (≈ 22.9 µM) against B. subtilis ATCC 6051; 64 µg/mL (≈ 45.9 µM) with S. aureus ATCC 29213. The MIC against P. aeruginosa ATCC 27853 was 16 µg/mL (≈ 11.5 µM); with E. faecium ATCC 35667, 16 µg/mL (≈ 11.5 µM); in series [3], 64 µg/mL (≈ 45.9 µM); in the series on E. coli ATCC 25822, 8 µg/mL (≈ 5.74 µM); against B. subtilis ATCC 6051 it was 32 µg/mL (≈ 22.9 µM); against S. aureus ATCC 29213 it was 64 µg/mL (≈ 45.9 µM). Besides, the midpoint of inhibition in the series “in vitro”, the IC50 at 24 h, lay at 470 µg/mL (≈ 337 µM). Also, the “toxicity (MTT)” value in the series with HEK293 cells is given as “did not show toxicity”.
As to `CC(C)C[C@H](NC(=O)[C@H](CC(C)C)NC(=O)[C@H](CCCN)NC(=O)[C@H](CC(C)C)NC(=O)[C@H](CC(C)C)NC(=O)[C@H](CCCCNC(=O)[C@H](CCCN)NC(=O)[C@H](CC(C)C)NC(=O)[C@H](CCCN)NC(=O)[C@H](CCCCNC(=O)[C@H](CCCN)NC(=O)[C@H](CC(C)C)NC(=O)[C@@H](N)CCCN)NC(=O)[C@H](CCCN)NC(=O)[C@H](CC(C)C)NC(=O)[C@@H](N)CCCN)NC(=O)[C@H](CCCN)NC(=O)[C@H](CC(C)C)NC(=O)[C@H](CCCN)NC(=O)[C@H](CCCCNC(=O)[C@H](CCCN)NC(=O)[C@H](CC(C)C)NC(=O)[C@@H](N)CCCN)NC(=O)[C@H](CCCN)NC(=O)[C@H](CC(C)C)NC(=O)[C@@H](N)CCCN)C(N)=O` [G2OLO-L2OL2, (OLO)4(KOLO)2KLLOLL-NH2] (I: H-[Orn]L[Orn]K([Orn-Leu-Orn])[Orn]L[Orn]KLL[Orn]LL-NH2 / II: H-[Orn]L[Orn]K([Orn-Leu-Orn])[Orn]L[Orn]; amide I:8-II:C), the “time–kill: effect on bacterial population” value with P. aeruginosa [1] (at MIC) was “killed all bacteria within the first hour of exposure and regrowth was observed after the second hour”; with P. aeruginosa [1] (at ¼ MIC) it was “the bacterial population was not totally eliminated”; with P. aeruginosa [1] (at ½ MIC), “the bacterial population was not totally eliminated”. Also, the “effect on growth curve” value with S. aureus is recorded as “negligible”; in the series with P. aeruginosa [2] (at the MIC), “abolished growth”; in the series with E. coli, “abolished bacterial growth”. Besides, the delay in growth with P. aeruginosa [2] (at ¼ MIC) is roughly 2 h; in the series on P. aeruginosa [2] (at ½ MIC), 10 h. The MBC was found to be 32 µg/mL (≈ 10.6 µM) in the series with P. aeruginosa ATCC 27853; 8 µg/mL (≈ 2.65 µM) against E. faecium ATCC 35667; 32 µg/mL (≈ 10.6 µM) against E. coli ATCC 25822; 32 µg/mL (≈ 10.6 µM) in the series with B. subtilis ATCC 6051; 32 µg/mL (≈ 10.6 µM) against S. aureus ATCC 29213. Besides, the MIC in the series on P. aeruginosa ATCC 27853 turned out to be 32 µg/mL (≈ 10.6 µM); with E. faecium ATCC 35667 it was 8 µg/mL (≈ 2.65 µM); in series [3] it was 64 µg/mL (≈ 21.2 µM); against E. coli ATCC 25822, 32 µg/mL (≈ 10.6 µM); against B. subtilis ATCC 6051 it was 32 µg/mL (≈ 10.6 µM); in the series with S. aureus ATCC 29213 it was 32 µg/mL (≈ 10.6 µM). In addition, the IC50 (commonly the concentration that inhibits the measured activity by half) at 24 h in “in vitro” was determined as 199 µg/mL (≈ 65.9 µM); in the series “MTT cytotoxicity assay”, 141 µg/mL (≈ 46.8 µM).
